Assays:
[1] = Measure of pH and EPA residual after neutral (water) dissolution and size exclusion filtration; conditions: 22 g water 130° C., 250 psi; receiver 10 g of 360 mM NaOH, 200 mM TRIS, 268 μM EDTA; two 20 μm frits
Protocol: A fluid path syringe was filled with 22 g of 18.2 MΩcm water and 10 g of 360 mM NaOH, 200 mM TRIS and 268 μM EDTA was placed in the fluid path receiver. A mixture of ^12C pyruvic acid and EPA were in the approximate ratio of 53:1 was placed in the sample container of the fluid path. The water in the syringe was heated to 130° C. and was pressurized to 250 psi. The filter body was filled with two frits used as particle size exclusion filters (Varian, part number 12131043, 1.5″ diameter, average pore size 20 μm).

[2] = pH-solubility profile of the EPA; format: physicochemical
Source text: In an exemplary embodiment of the invention sterile deionized water is placed in the syringe of the sterile fluid path (SFP), a sample of ^13CPA mixed with EPA is placed in the sample container and NaOH, TRIS, and EDTA are placed in the receiver. Size exclusion filters are placed in the filter cartridge. In this embodiment, the pH-solubility profile of the EPA is considered.

Compound | pH of resulting solution in the receiver [1] | solubility in aqueous solutions ([2]; above pH 4) | particulate diameter ([2]; pH less than 4) | solubility in aqueous solution ([2]; pH less than 4)
CC(=O)C(=O)O [^12C pyruvic acid] | 7.97 | – | – | –
tris {8-carboxyl-2,2,6,6-tetra[2-(1-methoxyethyl)]-benzo(1,2-d:4,5-d′)bis(1,3)dithiole-4-yl}methyl sodium salt [EPA] | – | soluble | greater than or equal to 10 microns | predominantly insoluble

From US8763410B2, “Method and apparatus for the dissolution and filtration of a hyperpolarized agent with a neutral dissolution media” (General Electric Company, priority 2008, dated 2014)
